# According to ChEMBL document CHEMBL1201862, “PubChem BioAssay data set” (2004):
# The source made the active and inactive calls.
# How the values were obtained:
# [1] = target: T1, Neuropeptides B/W receptor type 1 (Homo sapiens, UniProt P48145); test: human NPBW1 receptor blockade, IC50 – cell-based, fluorescence, dose response, set 6, late-stage follow-up (AID 588583); assay type: functional
# T1 sequence (P48145 whole entry): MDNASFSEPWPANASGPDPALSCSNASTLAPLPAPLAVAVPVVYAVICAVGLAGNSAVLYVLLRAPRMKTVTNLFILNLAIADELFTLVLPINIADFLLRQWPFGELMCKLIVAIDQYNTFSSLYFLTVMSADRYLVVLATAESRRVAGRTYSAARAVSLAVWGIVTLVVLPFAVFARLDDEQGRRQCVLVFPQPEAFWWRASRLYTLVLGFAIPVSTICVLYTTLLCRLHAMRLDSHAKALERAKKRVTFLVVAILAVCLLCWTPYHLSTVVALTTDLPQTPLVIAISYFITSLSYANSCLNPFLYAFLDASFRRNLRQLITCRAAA
# [2] = target: Melanin-concentrating hormone receptor 1 (Homo sapiens, UniProt Q99705); test: Late-stage fluorescence-based counterscreen for antagonists of the G-protein coupled receptor 7 (GPR7): cell-based dose response assay to identify antagonists of the melanin-concentrating hormone receptor 1 (MCHR1) Set 6.; assay type: functional
# Chain of Melanin-concentrating hormone receptor 1 (Q99705 whole entry): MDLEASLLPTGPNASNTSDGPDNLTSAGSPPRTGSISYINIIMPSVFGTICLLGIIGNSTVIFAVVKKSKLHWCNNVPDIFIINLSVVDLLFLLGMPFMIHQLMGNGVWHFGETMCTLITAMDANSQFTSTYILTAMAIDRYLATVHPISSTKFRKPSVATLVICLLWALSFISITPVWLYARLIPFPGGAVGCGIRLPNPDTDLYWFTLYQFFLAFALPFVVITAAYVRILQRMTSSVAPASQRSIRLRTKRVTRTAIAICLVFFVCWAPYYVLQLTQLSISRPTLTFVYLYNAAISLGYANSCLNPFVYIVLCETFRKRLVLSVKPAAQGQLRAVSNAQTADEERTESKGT
# [3] = microbe, parasite or virus in culture; assay type: functional; conditions: Mycobacterium tuberculosis
# [4] = Vero cell cytotoxicity, dose response, cytotoxicity control for M. tuberculosis growth inhibitor project, Vero cells, purified and synthesized compounds, set 4 (AID 504854); assay type: functional; conditions: Mycobacterium tuberculosis
# CAAX prenyl protease 2 = target: T2, CAAX prenyl protease 2 (Homo sapiens, UniProt Q9Y256); test: inhibition of Ras-converting CAAX protease Rce1 – biochemical, yeast membranes, quenched-peptide fluorescence, cherry-pick, dose response (AID 588849)
# T2 sequence (Q9Y256 whole entry): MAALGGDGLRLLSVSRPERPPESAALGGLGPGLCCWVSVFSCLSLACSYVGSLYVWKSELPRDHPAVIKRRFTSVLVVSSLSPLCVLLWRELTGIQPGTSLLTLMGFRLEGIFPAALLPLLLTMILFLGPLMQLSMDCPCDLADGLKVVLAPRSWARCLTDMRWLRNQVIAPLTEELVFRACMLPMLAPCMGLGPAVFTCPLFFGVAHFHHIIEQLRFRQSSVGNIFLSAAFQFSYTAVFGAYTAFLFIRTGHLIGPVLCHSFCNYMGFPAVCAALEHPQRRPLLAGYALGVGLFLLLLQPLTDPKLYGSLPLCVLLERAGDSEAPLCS
# CAAX prenyl protease 1 = CAAX prenyl protease 1 (Saccharomyces cerevisiae S288c, UniProt P47154); test: yeast CAAX protease Ste24 inhibition – biochemical, S. cerevisiae, plate reader, cherry-pick, dose response (AID 488815)
# Chain of CAAX prenyl protease 1 (P47154 whole entry): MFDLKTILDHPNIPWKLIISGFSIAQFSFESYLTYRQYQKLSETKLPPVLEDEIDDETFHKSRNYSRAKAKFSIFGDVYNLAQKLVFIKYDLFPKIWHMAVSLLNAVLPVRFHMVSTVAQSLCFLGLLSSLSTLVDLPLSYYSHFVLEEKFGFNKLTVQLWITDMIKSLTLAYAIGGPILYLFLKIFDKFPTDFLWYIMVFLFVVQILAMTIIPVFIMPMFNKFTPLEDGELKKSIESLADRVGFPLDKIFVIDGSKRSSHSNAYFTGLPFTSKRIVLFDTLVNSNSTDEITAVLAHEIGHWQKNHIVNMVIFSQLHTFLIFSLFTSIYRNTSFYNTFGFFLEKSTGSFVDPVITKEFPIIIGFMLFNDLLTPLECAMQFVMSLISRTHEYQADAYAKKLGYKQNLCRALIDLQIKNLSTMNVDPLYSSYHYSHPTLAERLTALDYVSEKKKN
# [5] = THP-1 cell cytotoxicity, dose response, cytotoxicity control, set 3 (AID 504852); assay type: functional; conditions: Mycobacterium tuberculosis
# [6] = THP-1 cell cytotoxicity, cytotoxicity control, set 4 (AID 504911); assay type: functional; conditions: Mycobacterium tuberculosis
# [7] = Vero cell cytotoxicity, cytotoxicity control for M. tuberculosis inhibitor project, purified and synthesized samples, set 3 (AID 504684); assay type: functional
# [8] = HepG2 cell cytotoxicity, dose response, cytotoxicity control, set 3 (AID 504853); assay type: functional; conditions: Mycobacterium tuberculosis
# [9] = A Cell Based Secondary Assay to Explore Cytotoxicity in HepG2 Cells of Compounds that Modulate Mycobacterium tuberculosis in Media Containing Glycerol versus Media without Glycerol (2).; assay type: functional
# [10] = A Cell Based Secondary Assay to Explore Cytotoxicity in THP-1 Cells of Compounds that Modulate Mycobacterium tuberculosis in Media Containing Glycerol versus Media without Glycerol (2).; assay type: functional
# [11] = Vero cell cytotoxicity, dose response, cytotoxicity control for M. tuberculosis growth inhibitor project, Vero cells, purified and synthesized compounds, set 5 (AID 504909); assay type: functional; conditions: Mycobacterium tuberculosis
# [12] = target: Protein kinase C delta type (Homo sapiens, UniProt Q05655); assay type: functional
# [13] = target: Serine/threonine-protein kinase Chk1 (Homo sapiens, UniProt O14757); assay type: functional;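 also: measured as one member of a kinome-wide kinase profiling panel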
# [14] = target: Ribosomal protein S6 kinase alpha-3 (Homo sapiens, UniProt P51812); assay type: functional;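 also: measured within a kinome-wide profiling panel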
# [15] = target: cAMP-dependent protein kinase catalytic subunit alpha (Homo sapiens, UniProt P17612); assay type: functional
# Aurora kinase A = Aurora kinase A (Homo sapiens, UniProt O14965); assay type: functional;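 also: value from the Navigating the Kinome kinase panel profiling, panel entry STK6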
# [16] = target: Serine/threonine-protein kinase Chk2 (Homo sapiens, UniProt O96017); assay type: functional;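 also: CHEK2 entry within a kinome-wide screening panel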
# [17] = target: MAP/microtubule affinity-regulating kinase 3 (Homo sapiens, UniProt P27448); assay type: functional;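 also: MARK3 affinity measured as one member of a kinome panel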
# Chain of MAP/microtubule affinity-regulating kinase 3 (P27448 whole entry): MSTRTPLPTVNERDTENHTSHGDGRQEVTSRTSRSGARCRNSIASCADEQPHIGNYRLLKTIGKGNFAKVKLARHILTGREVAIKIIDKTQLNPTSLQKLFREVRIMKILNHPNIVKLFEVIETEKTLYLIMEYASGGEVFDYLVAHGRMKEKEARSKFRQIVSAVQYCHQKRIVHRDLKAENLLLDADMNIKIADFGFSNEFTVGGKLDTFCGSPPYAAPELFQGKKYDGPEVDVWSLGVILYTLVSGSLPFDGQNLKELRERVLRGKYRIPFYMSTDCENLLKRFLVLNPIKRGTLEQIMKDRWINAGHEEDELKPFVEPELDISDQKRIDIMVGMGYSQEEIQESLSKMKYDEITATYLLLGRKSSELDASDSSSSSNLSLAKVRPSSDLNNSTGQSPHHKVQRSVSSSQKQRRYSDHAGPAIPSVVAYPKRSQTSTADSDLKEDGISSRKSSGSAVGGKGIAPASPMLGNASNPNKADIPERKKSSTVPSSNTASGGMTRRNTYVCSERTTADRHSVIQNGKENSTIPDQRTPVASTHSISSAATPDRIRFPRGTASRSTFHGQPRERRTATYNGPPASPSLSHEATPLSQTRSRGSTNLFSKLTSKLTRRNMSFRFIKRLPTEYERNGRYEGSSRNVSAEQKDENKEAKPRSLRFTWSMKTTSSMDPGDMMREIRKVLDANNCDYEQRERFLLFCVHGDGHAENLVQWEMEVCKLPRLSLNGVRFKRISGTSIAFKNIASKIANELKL
# [18] = target: Protein disulfide-isomerase (Homo sapiens, UniProt P07237); test: inhibition of PDI-driven insulin aggregation – biochemical, turbidity, absorbance, cherry-picked samples, dose response (AID 602350); assay type: functional
# [19] = target: Mitogen-activated protein kinase 13 (Homo sapiens, UniProt O15264); assay type: functional
# Chain of Mitogen-activated protein kinase 13 (O15264 whole entry): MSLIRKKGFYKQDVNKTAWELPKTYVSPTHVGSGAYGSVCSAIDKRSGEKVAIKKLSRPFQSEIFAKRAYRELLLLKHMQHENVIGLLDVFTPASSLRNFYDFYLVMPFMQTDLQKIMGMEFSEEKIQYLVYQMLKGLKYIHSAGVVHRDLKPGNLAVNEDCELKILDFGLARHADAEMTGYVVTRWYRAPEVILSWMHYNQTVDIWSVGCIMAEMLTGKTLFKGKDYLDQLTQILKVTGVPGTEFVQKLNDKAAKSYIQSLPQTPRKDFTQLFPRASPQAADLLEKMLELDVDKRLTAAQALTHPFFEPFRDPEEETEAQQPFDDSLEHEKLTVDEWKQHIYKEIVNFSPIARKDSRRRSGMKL
# [20] = target: T3, High affinity choline transporter 1 (Homo sapiens, UniProt Q9GZV3); test: human choline transporter potentiators, potency – cell-based, 10-point CRC, membrane potential dye, dose response (AID 602376); assay type: functional
# T3 sequence (Q9GZV3 whole entry): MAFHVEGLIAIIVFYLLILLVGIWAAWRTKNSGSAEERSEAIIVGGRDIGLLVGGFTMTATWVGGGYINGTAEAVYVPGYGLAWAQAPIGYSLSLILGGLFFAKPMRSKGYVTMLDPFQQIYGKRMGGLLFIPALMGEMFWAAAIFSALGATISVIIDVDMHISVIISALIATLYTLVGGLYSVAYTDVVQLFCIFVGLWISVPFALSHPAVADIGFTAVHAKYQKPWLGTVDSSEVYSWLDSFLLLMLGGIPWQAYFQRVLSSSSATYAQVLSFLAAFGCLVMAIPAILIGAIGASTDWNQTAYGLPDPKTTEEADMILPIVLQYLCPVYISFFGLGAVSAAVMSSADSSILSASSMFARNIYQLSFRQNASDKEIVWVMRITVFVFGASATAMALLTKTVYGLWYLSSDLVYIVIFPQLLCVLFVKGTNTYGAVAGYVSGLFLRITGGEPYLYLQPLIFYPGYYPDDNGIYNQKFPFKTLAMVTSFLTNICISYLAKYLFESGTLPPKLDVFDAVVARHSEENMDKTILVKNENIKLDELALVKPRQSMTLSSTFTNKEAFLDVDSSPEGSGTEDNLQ
# [21] = target: Mitogen-activated protein kinase 9 (Homo sapiens, UniProt P45984); assay type: functional;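 also: value from a kinome panel profiling assay, MAPK9 panel entry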
# [22] = target: Macrophage-stimulating protein receptor (Homo sapiens, UniProt Q04912); test: Navigating the Kinome. Panel member name: MST1R; assay type: functional
# [23] = target: Hepatocyte growth factor receptor (Homo sapiens, UniProt P08581); assay type: functional;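 also: kinase panel profiling across the kinome, with MET as the panel member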
# LIM domain kinase 1 = LIM domain kinase 1 (Homo sapiens, UniProt P53667); test: Navigating the Kinome. Panel member name: LIMK1; assay type: functional
# [24] = target: Insulin-like growth factor 1 receptor (Homo sapiens, UniProt P08069); test: Navigating the Kinome. Panel member name: IGF1R; assay type: functional
# Chain of Insulin-like growth factor 1 receptor (P08069 31-736 limits assumed): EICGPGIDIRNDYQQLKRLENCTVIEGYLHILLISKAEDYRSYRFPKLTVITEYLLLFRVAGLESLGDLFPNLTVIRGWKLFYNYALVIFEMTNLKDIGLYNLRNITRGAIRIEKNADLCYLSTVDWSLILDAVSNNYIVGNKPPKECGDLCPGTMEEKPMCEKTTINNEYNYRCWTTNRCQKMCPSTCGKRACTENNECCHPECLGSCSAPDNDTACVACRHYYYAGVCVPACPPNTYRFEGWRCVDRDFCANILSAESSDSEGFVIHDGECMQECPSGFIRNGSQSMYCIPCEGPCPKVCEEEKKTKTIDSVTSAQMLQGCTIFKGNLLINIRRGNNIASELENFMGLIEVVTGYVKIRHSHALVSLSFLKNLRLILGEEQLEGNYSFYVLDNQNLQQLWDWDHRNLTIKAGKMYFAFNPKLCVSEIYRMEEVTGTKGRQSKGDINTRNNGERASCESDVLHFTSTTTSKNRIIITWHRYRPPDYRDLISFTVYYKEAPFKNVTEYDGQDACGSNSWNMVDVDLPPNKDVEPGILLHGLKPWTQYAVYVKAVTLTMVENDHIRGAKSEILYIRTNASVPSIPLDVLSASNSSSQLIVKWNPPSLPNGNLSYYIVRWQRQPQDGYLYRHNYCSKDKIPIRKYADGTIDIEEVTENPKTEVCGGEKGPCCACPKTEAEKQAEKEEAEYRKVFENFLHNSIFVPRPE
# Chain of Insulin-like growth factor 1 receptor (P08069 741-1367 limits assumed): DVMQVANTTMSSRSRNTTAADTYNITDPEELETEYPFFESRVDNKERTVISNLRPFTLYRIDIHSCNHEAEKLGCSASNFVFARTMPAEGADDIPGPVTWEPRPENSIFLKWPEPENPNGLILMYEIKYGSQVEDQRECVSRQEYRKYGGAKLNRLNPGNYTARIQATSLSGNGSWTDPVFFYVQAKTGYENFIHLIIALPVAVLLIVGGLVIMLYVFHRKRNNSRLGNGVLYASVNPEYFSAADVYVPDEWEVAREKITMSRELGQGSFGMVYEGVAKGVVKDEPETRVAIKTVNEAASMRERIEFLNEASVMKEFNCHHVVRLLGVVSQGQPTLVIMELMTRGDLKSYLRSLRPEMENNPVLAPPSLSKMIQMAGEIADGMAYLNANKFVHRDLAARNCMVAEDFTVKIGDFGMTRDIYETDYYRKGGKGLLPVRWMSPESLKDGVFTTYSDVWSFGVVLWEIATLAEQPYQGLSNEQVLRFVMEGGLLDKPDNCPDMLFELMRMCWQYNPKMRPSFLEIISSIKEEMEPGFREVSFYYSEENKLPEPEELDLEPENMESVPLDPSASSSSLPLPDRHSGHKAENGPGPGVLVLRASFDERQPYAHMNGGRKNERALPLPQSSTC
# [25] = target: Dual specificity protein kinase CLK2 (Homo sapiens, UniProt P49760); assay type: functional
# [26] = target: Vascular endothelial growth factor receptor 1 (Homo sapiens, UniProt P17948); assay type: functional;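 also: measured within a kinome-wide profiling panel, FLT1 as the panel member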
# [27] = target: Serine/threonine-protein kinase D3 (Homo sapiens, UniProt O94806); assay type: functional;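 also: determined within a kinase panel screen, with PRKCN as the panel member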
# [28] = target: High affinity nerve growth factor receptor (Homo sapiens, UniProt P04629); assay type: functional;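 also: NTRK1 tested as one member of a kinome-wide profiling panel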
# [29] = target: Tyrosine-protein kinase Fyn (Homo sapiens, UniProt P06241); assay type: functional
# [30] = target: Dual specificity mitogen-activated protein kinase kinase 2 (Homo sapiens, UniProt P36507); test: Navigating the Kinome. Panel member name: MAP2K2; assay type: functional
# [31] = target: Casein kinase I isoform alpha (Homo sapiens, UniProt P48729); assay type: functional
# [32] = target: Fibroblast growth factor receptor 1 (Homo sapiens, UniProt P11362); assay type: functional
# Activin receptor type-1 = Activin receptor type-1 (Homo sapiens, UniProt Q04771); test: Navigating the Kinome. Panel member name: ACVR1; assay type: functional
# [33] = target: Leucine-rich repeat serine/threonine-protein kinase 2 (Homo sapiens, UniProt Q5S007); assay type: functional;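 also: value from a broad kinome-wide panel profiling study in which LRRK2 was one of the kinases tested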
# [34] = target: Leukocyte tyrosine kinase receptor (Homo sapiens, UniProt P29376); test: Navigating the Kinome. Panel member name: LTK; assay type: functional
# [35] = target: Tyrosine-protein kinase Lck (Homo sapiens, UniProt P06239); assay type: functional;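 also: lck was assayed as one member of a kinase panel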
# [36] = target: Protein kinase C theta type (Homo sapiens, UniProt Q04759); test: Navigating the Kinome. Panel member name: PRKCQ; assay type: functional
# Chain of Protein kinase C theta type (Q04759 whole entry): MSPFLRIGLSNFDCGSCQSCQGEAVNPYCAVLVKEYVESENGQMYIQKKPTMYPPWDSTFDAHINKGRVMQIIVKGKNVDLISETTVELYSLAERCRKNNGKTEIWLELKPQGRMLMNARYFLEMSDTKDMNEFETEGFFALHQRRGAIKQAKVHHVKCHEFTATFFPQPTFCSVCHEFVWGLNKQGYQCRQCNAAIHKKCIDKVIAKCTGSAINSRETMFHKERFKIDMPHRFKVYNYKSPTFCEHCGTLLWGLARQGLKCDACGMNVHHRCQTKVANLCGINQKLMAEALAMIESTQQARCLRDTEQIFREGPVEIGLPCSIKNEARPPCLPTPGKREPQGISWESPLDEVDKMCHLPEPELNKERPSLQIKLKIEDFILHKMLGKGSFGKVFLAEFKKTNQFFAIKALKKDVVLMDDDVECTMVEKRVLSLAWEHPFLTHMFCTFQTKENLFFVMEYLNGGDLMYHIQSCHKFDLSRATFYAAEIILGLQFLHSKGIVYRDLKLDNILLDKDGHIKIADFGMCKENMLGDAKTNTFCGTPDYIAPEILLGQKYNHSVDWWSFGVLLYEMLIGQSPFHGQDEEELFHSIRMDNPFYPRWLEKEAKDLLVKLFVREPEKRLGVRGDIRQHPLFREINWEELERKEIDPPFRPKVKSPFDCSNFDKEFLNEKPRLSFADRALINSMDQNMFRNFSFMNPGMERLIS
# [37] = target: Cyclin-dependent kinase 5 (Homo sapiens, UniProt Q00535); assay type: functional;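 also: CDK5 measured as one member of a kinase profiling panel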
# [38] = target: Tyrosine-protein kinase JAK2 (Homo sapiens, UniProt O60674); assay type: functional;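 also: JAK2 tested as one member of a kinase panel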
# [39] = target: Rho-associated protein kinase 1 (Homo sapiens, UniProt Q13464); assay type: functional;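 also: measured within a broad kinome-wide panel profiling many kinases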
# [40] = target: Platelet-derived growth factor receptor alpha (Homo sapiens, UniProt P16234); test: Navigating the Kinome. Panel member name: PDGFRA; assay type: functional
# Chain of Platelet-derived growth factor receptor alpha (P16234 whole entry): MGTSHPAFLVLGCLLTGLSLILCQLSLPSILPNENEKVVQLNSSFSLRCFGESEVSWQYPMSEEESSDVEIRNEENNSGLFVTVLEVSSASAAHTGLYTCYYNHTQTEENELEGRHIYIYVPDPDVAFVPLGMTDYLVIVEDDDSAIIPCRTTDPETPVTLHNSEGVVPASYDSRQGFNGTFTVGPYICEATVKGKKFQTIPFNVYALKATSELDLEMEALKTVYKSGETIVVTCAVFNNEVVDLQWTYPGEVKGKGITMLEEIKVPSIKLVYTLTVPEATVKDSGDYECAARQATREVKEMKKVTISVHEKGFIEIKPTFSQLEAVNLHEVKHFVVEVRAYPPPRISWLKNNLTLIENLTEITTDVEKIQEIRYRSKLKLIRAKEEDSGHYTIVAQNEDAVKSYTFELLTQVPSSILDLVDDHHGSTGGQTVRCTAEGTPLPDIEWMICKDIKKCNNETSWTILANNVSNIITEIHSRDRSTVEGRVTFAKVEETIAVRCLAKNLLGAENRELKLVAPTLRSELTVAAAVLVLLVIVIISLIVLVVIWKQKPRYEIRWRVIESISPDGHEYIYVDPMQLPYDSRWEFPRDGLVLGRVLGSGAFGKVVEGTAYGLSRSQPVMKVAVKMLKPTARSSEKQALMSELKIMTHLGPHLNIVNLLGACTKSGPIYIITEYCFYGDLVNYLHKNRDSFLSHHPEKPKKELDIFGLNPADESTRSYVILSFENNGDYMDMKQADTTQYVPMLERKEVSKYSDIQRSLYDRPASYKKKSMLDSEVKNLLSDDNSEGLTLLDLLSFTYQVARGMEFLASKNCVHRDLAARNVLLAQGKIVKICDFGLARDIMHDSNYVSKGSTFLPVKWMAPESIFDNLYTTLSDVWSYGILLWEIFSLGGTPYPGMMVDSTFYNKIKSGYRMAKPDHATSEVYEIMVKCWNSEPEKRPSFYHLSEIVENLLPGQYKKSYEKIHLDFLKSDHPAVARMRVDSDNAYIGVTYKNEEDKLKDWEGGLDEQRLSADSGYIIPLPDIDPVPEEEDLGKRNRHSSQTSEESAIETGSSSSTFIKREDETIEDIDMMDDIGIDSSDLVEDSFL
# Focal adhesion kinase 1 = Focal adhesion kinase 1 (Homo sapiens, UniProt Q05397); assay type: functional;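 also: measured as one member of a kinome panel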
# [41] = target: Glycogen synthase kinase-3 alpha (Homo sapiens, UniProt P49840); assay type: functional;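 also: GSK3A result taken from a broad kinome-wide kinase panel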
# [42] = target: Tyrosine-protein kinase receptor TYRO3 (Homo sapiens, UniProt Q06418); assay type: functional;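 also: TYRO3 value obtained as one member of a kinome-wide profiling panel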
# [43] = target: Mitogen-activated protein kinase kinase kinase kinase 2 (Homo sapiens, UniProt Q12851); assay type: functional;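 also: measured as one member of a kinome-wide kinase panel, with MAP4K2 as the panel entry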
smiles,measurement,setting,value
N#Cc1cccc(C(C#N)c2c(Br)cnn(Cc3cccc4ccccc34)c2=O)c1 (centres undefined),IC50,[1],~693 nM (active)
same,IC50,[2],~693 nM (active)
Cc1cc(Br)ccc1NC(=O)c1cnc(N2CCN(c3ccccn3)CC2)c2ccccc12,CC50,[3],> 40000 nM (active)
same,CC50,[4],82000 nM (active)
same,AC50,CAAX prenyl protease 2,8930 nM (active)
same,AC50,CAAX prenyl protease 1,7540 nM (active)
same,CC50,[5],39800 nM (active)
same,CC50,[6],13200 nM (active)
same,CC50,[7],46300 nM (active)
same,CC50,[8],> 50000 nM (active)
same,CC50,[9],> 50000 nM (active)
same,CC50,[10],86000 nM (active)
same,CC50,[11],> 100000 nM (active)
CN(C)c1ncnc2nc[nH]c12 [DIMETHYLADENINE],Ki,[12],12600 nM (active)
same,Ki,[13],12600 nM (active)
same,Ki,[14],5010 nM (active)
same,Ki,[15],15800 nM (active)
same,Ki,Aurora kinase A,3980 nM (active)
same,Ki,[16],3980 nM (active)
same,Ki,[17],5010 nM (active)
O=S(=O)(c1ccccc1)N1N=C(c2ccc(O)cc2)CC1c1ccco1 (centres undefined),AC50,[18],19500 nM (active)
O=C(Nc1cnccn1)Nc1ccnc2c(F)cccc12,Ki,[19],> 7940 nM (inactive)
CC(c1ccccc1)N(CCC(c1ccccc1)C1CCOC(C)(C)C1)C(=O)c1ccco1 (centres undefined),EC50,[20],5670 nM (active)
Nc1ncnc2c1c(-c1cnc3[nH]ccc3c1)nn2C1CCCC1,Ki,[21],1260 nM (active)
same,Ki,[22],126 nM (active)
same,Ki,[23],> 2510 nM (inactive)
same,Ki,LIM domain kinase 1,158 nM (active)
same,Ki,[24],398 nM (active)
same,Ki,[25],1000 nM (active)
same,Ki,[26],63.1 nM (active)
same,Ki,[27],251 nM (active)
same,Ki,[28],> 3160 nM (inactive)
same,Ki,[29],79.4 nM (active)
same,Ki,[30],1000 nM (active)
same,Ki,[31],39.8 nM (active)
same,Ki,[32],100 nM (active)
same,Ki,Activin receptor type-1,63.1 nM (active)
same,Ki,[33],63.1 nM (active)
same,Ki,[34],158 nM (active)
same,Ki,[35],158 nM (active)
same,Ki,[36],501 nM (active)
same,Ki,[37],1260 nM (active)
same,Ki,[38],1000 nM (active)
same,Ki,[39],200 nM (active)
same,Ki,[40],316 nM (active)
same,Ki,Focal adhesion kinase 1,1260 nM (active)
same,Ki,[41],2000 nM (active)
same,Ki,[42],794 nM (active)
same,Ki,[43],316 nM (active)
